These results are taken from patent publication US11149016B2, “S-substituted-2-amino-3-mercaptopropionate derivative, preparation method and application thereof” (JIANGSU TASLY DIYI PHARMACEUTICAL CO., LTD., priority 2016, dated 2021).

The test system of this assay is mice with memory disorders caused by scopolamine. The experiment in a line: Passive avoidance (darkroom) test in mice with scopolamine-injured memory. In kind it is in vivo, ICR mice. The conditions noted are these: for Activity compared with SPRC (in words) / Effect on error times of mice with memory impairment entering the darkroom (in words) / Effect on latency of mice with memory impairment entering the darkroom (in words): passive avoidance test, scopolamine model; for Latency (s) of entering the darkroom / Error times (number of times entering the darkroom within 3 minutes): intragastric, 7 days, scopolamine 3 mg/kg 20 minutes before testing, x ± s, n = 10. From the text: Memory functions of mice are injured by scopolamine, and effects of improvement of tested materials on the memory functions of the mice are observed.
Animals: ICR mice, male, 20-22 g, purchased from Institute for Experimental Animals in Chinese Academy of Medical Sciences, certification number: SCXK (JING) 2014-0004.
Agent: scopolamine (J&K Company), donepezil reagent (TCI Company).
Tested materials: 4 tested materials and a positive-drug donepezil are provided by Tasly Group. Dosage of administration: administered by tested materials according to 80 mg/kg weight, administered by donepezil according to 5 mg/kg weight, an administration volume of 2 ml.
purchasing 60 mice, and enabling the mice to adapt to an environment for three days; dividing the mice into 6 groups randomly, wherein a blank control group includes 10 mice, the rest mice are contained in administration groups, and each administration group includes 10 mice; respectively administering the tested materials and positive drug, performing intragastric administration for 7 days, putting the mice into a darkroom to adapt to the environment on the fifth day during administration, electrifying the darkroom on the sixth day during administration, training the mice to elude the darkroom, and training each mouse once; testing on the seventh day, administering with scopolamine by 3 mg/kg within 20 minutes before testing, and recording time of the mice entering the darkroom for the first time and a number of times of the mice entering the darkroom within 3 minutes during testing.
Passive avoidance response is a common method used commonly to detect learning and memory functions of small animals. With respect to a passive avoidance test, by means of a feature that rodents like darkness and keep in a dark place, the rodents are stimulated in the dark to escape to a bright place to acquire memory, and the passive avoidance test is a type of passive avoidance response experiments. The passive avoidance test has a short experimental period and is applicable to rapid drug screening. The scopolamine may inhibit release of acetyl choline, so as to form learning and memory disorders. The passive avoidance test is a stable learning and memory disorder modeling method and has excellent model reproducibility.

Where [1] appears, read: tested materials 80 mg/kg, time of first entry into darkroom.
Setting [2] is: positive drug donepezil 5 mg/kg.

Regarding `C#CCSCC(N)C(=O)OCc1ccc(OC(=O)C(N)CSCC#C)cc1` (centres unmarked) [Vd, bis(2-amino-3-propinylmercaptopropionic acid)-4-benzyl alcohol-1-phenol diester], the “Activity compared with SPRC (in words)” value was “obviously better than the activity of the SPRC”, the “Effect on error times of mice with memory impairment entering the darkroom (in words)” value is reported as “trend of decreasing the error times” and the “Effect on latency of mice with memory impairment entering the darkroom (in words)” value was “trend of increasing the latency”. Besides, the “Latency (s) of entering the darkroom” value under setting [1] is given as 63.6 ± 69.5 s. The “Error times (number of times entering the darkroom within 3 minutes)” value (tested materials 80 mg/kg) was 2.6 ± 3.3.
Regarding `C#CCSCC(N)C(=O)Oc1ccc(-c2cc(=S)ss2)cc1` (centres unmarked) [Va, 2-amino-3-propinylmercaptopropionic acid-4-(3-thio-3H-1,2-dithio-5-alkenyl) phenol ester], the “Latency (s) of entering the darkroom” value under setting [1] amounted to 55.8 ± 61.3 s. The “Error times (number of times entering the darkroom within 3 minutes)” value (tested materials 80 mg/kg) is recorded as 4.7 ± 4.6.
Regarding `COc1cc2c(cc1OC)C(=O)C(CC1CCN(Cc3ccccc3)CC1)C2` (centres unmarked) [Donepezil, donepezil, reference compound], under setting [2], the “Error times (number of times entering the darkroom within 3 minutes)” value is listed as 6.8 ± 5.4 and the “Latency (s) of entering the darkroom” value is recorded as 49.5 ± 71.6 s.
For `C#CCSCC(N)C(=O)OCCCC[N+](=O)[O-]` (centres unmarked) [Vf, 2-amino-3-propinylmercaptopropionic acid-4-nitro-1-butanol ester], the “Activity compared with SPRC (in words)” value is “obviously better than the activity of the SPRC”, the “Effect on error times of mice with memory impairment entering the darkroom (in words)” value was “trend of decreasing the error times” and the “Effect on latency of mice with memory impairment entering the darkroom (in words)” value is recorded as “trend of increasing the latency”. For the same compound, the “Latency (s) of entering the darkroom” value under setting [1] stood at 60.2 ± 61.3 s. In addition, the “Error times (number of times entering the darkroom within 3 minutes)” value (tested materials 80 mg/kg) came to 2.4 ± 2.3.
The matching figures for `C#CCSCC(N)C(=O)Oc1ccc(CO)cc1` (centres unmarked) [Vc, 2-amino-3-propinylmercaptopropionic acid-4-benzyl alcohol phenol ester]: “obviously better than the activity of the SPRC”, “trend of decreasing the error times”, “trend of increasing the latency”, 66.8 ± 57.1 s and 2.4 ± 1.3.
Consider `C#CCSC[C@H](N)C(=O)O` [SPRC, S-propargyl-cysteine, reference compound], for which the “Latency (s) of entering the darkroom” value under setting [1] was determined as 50.5 ± 69.7 s. Also, the “Error times (number of times entering the darkroom within 3 minutes)” value (tested materials 80 mg/kg) was found to be 3.8 ± 4.0.
The matching figures for `C#CCSCC(N)C(=O)Oc1ccc(C=O)cc1` (centres unmarked) [Vb, 2-amino-3-propinylmercaptopropionic acid-4-formyl phenol ester]: 53.2 ± 59.4 s and 4.1 ± 3.7.
